Measurements published in US20090010910A1, “COMPOSITIONS AND METHODS FOR DERMATOLOGICAL WOUND HEALING” (MEDIWOUND LTD., priority 2004, published 2009).

Test system: burn eschar (deep thermal burn)
Assay: In vivo eschar debridement test in swine model (radiant-heat deep thermal burn, 4-hour application, visual assessment score)
Design: species or system young domestic pig (Landrace×Large Whites juvenile swine)
Description: This study assessed the eschar-debriding activity of the debriding composition in vivo using an animal model of young domestic pig (Landrace×Large Whites juvenile swine) 22 Kg±2 Kg, bearing deep thermal burn. […] In order to create test conditions burns were inflicted in fully anesthetized animals, in a dorsal test area, by a radiant heat device creating wounds of about 4.5×4.5 cm^2. The treatment consisted of a 4-hour application of the debriding composition following by cleansing of the wound. Visual evaluation of the wound and extent of debridement is carried out by photographical documentation of the burn was performed before and after the debriding treatment. The results were expressed using debridement visual assessment scoring (VAS) scale of 1 to 5 as follows:
The model was a radiant-heat thermal burn in an anesthetized young domestic pig. In order to create test conditions which are in accordance with the therapeutic use of the test article, deep dermal and full thickness burns were inflicted in all animals by applying a radiant heat device to the back to cover an area of approximately 3% TBSA (4.5×4.5 cm) for each burn. A gross evaluation of the debriding activity of the test article (the amount of eschar removed) was assessed and photographically documented. […]

## O=[N+]([O-])[O-].[Ag+] [AgNO3]
AgNO3 (0.5%), FIG. 1
  debridement by semi solid cake of debriding agent reconstituted with hydrating gel plus antiseptic: performs debridement
FIG. 1, areas 10-12 (Silverol™) versus 14-15 (AgNO3), after cleaning dissolved eschar
  difference in morphology of debrided burns between areas treated with debriding mixture comprising the antiseptic: No significant difference
